# In patent EP0801947B1, “Use of octopirox as skin depigmentation agent” (L'OREAL, priority 1996, dated 1997):
# Test system: tyrosinase de champignons
# Assay: Inhibition of the dopa-oxidase activity of mushroom tyrosinase (dopachrome formation followed by visible spectrometry at 475 nm)
# Type: biochemical
# Text: Un test a mis en évidence l'activité de l'octopirox comme inhibiteur de la tyrosinase par évaluation de son effet inhibiteur sur l'activité dopa-oxydase de la tyrosinase des mélanocytes de champignons.
# Selon ce test, on suit par spectrométrie visible à 475 nm la quantité de dopachrome formée au cours de la chaîne de réaction de transformation de la tyrosine en mélanine, en fonction du temps. Ces réactions sont catalysées in vitro par la tyrosinase de champignons, en présence d'un co-substrat réducteur (la L-dopa en petite quantité) pour initier la réaction d'hydroxylation de la L-tyrosine en L-dopa, laquelle est ensuite oxydée catalytiquement en dopaquinone puis en dopachrome, produit intermédiaire avant les réactions d'oxydation non enzymatiques aboutissant à la formation de mélanine.
# Le milieu réactionnel utilisé pour réaliser ce test comprend 1 ml d'une solution de L-tyrosine à 2.10^-3 M dans du tampon phosphate 0,1 M de pH = 6,5, 0,1 ml de solution de L-dopa à 10^-4 M dans le tampon phosphate, 0,05 ml de solution de tyrosinase de champignons à 2.400 unités/ml dans le tampon phosphate et 1,85 ml de solution de l'inhibiteur à 10^-2 M dans le tampon phosphate. Pour le témoin, la quantité d'inhibiteur a été remplacée par de l'éthanol. […]
# La concentration de 10^-2 M d'octopirox dans le milieu réactionnel correspond à une quantité équimolaire par rapport à la tyrosine utilisée. […]
structure (smiles),measurement,setting,value
"Cc1cc(CC(C)CC(C)(C)C)n(O)c(=O)c1 (centres unmarked) [octopirox, 1-hydroxy-4-méthyl-6-(2,4,4-triméthylpentyl)-2(1H)-pyridinone]","temps pour obtenir le même pourcentage de dopachrome formée, par exemple 100 %","inhibitor solution 10^-2 M in phosphate buffer 0,1 M pH 6,5, L-tyrosine 2.10^-3 M, L-dopa 10^-4 M, control (ethanol) 9,5 minutes, figure 1 curves (b)",14 min
same,quantité de dopachrome formée au cours du temps,"inhibitor solution 10^-2 M, compared with control curve (a), figure 1, result in words",net ralentissement de la quantité de dopachrome formée au cours du temps
